The values below are quoted from earlier work in patent US20200057081A1, “System and Method for Managing Animal Cancers by Disabling the Cancer Cells Ability to Reproduce” (priority 2018, published 2020).

In data set [1] the test system is cultured cancer cell lines. The note with it: multiple cell lines.
The target in data set [2] is T1, dynamin GTPase (Homo sapiens, UniProt O00429).
T1 construct: host or cells: mammalian cells (not specified)
The note with it: in mammalian cells; read-out: IC50, inhibition of mitochondrial division / dynamin GTPase activity.

For data set [3], the system named is mitochondria. As to conditions: Bid-activated, Bax/Bak-dependent, in vitro.
Data set [4] relates to tumors transplanted to mice.
Data set [5] concerns cancer cells.
The target of data set [6] is Drp1/Fis1 interaction (Homo sapiens, UniProt O00429).
Chain of Drp1/Fis1 interaction (O00429 whole entry): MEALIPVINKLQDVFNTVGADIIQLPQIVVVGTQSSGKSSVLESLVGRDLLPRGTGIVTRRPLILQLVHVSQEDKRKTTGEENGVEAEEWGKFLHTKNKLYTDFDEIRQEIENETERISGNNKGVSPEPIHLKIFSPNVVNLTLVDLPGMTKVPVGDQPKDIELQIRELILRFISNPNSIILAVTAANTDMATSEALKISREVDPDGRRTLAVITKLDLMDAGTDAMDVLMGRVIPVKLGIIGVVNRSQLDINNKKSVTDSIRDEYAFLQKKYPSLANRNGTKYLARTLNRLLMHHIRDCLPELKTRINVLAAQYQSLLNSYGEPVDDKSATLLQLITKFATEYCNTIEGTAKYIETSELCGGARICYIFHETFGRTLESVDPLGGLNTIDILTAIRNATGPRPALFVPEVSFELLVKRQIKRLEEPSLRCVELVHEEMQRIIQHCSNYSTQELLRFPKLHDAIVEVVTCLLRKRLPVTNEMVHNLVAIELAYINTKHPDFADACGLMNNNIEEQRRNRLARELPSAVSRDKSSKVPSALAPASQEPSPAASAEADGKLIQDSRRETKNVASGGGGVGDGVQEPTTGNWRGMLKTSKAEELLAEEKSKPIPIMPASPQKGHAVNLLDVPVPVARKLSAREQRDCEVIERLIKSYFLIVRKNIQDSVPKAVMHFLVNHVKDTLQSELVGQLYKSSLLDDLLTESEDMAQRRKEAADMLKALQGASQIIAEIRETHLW

T1 sequence (O00429 whole entry): as above

In the case of `C=C1CC[C@H](O)C/C1=C/C=C1\CCC[C@]2(C)[C@@H]([C@H](C)CCCC(C)C)CC[C@@H]12` [VD3], the anti-proliferative effect result in data set [1] is listed as “modest anti-proliferative effect”.

For the compound `COc1cc(-n2c(=S)[nH]c3ccccc3c2=O)c(Cl)cc1Cl` [Mdivi 1], the IC50 in data set [2] is approximately 50 µM. In addition, in data set [3], the “cytochrome c release from mitochondria” value was “block Bid-activated Bax/Bak-dependent cytochrome c release”. On to `Cc1ncc(C[n+]2csc(CCO)c2C)c(=O)[nH]1` [oxythiamine], for which the tumor growth entry in data set [4] is recorded as “slow down the growth”. Turning to `O=C(O)C(=O)CBr` [3-bromopyruvate], the tumor growth entry in data set [4] is “slow down the growth”. In the case of `CN(C)c1ccc(C2Nc3ccc4ccccc4c3C3=C2C(=O)CC(C)(C)C3)cc1Br` (stereo not shown) [compound 968], the “inhibition of cancer cell growth” value in data set [5] (cancer cells) is “highly specific for inhibiting cancer cell growth”. In addition, the “effect on normal cells” value in data set [5] (normal (nontransformed) cells) was “little effect”. With “P110: polypeptide P110, DLLPRGT, inhibitor of Drp1”, in data set [6], the “selectivity for Drp1/Fis1 interaction over Drp1 interaction with other ligands” value is given as “more selective for blocking Drp1/Fis1 interaction”. As for `CS(=O)(=O)c1ccc(C(=O)Nc2ccc(Cl)c(-c3ccccn3)c2)c(Cl)c1` [GDC-0449], the anti-proliferative effect entry in data set [1] is reported as “modest anti-proliferative effect”.

In the case of `CC1=C2C[C@H]3[C@@H](CC=C4C[C@@H](O)CC[C@@]43C)[C@@H]2CC[C@]12O[C@@H]1C[C@H](C)CN[C@H]1[C@H]2C` [Cyc], in data set [1], the anti-proliferative effect result was “modest anti-proliferative effect”.
